How the values were obtained:
beta-TC6 cells [1] = experiment: Insulin release in high glucose medium, rat/mouse insulin ELISA; type: cell-based; settings: Mus musculus, Beta-TC6, 2 h, high glucose (4.5 g/L) DMEM, Example 9, Figure 6, ± SEM, read-out: increase of insulin release
Method: Cells were cultured overnight, washed with PBS and then treated with 5 µM of test compounds as well as non-inhibitor controls for 2 h in a high glucose (4.5 g/L) DMEM at 37°C and 5 % (v/v) CO2. Release of insulin was detected using a rat/mouse insulin ELISA.
(§1) After incubation, the supernatant of the beta-TC6 insulinoma cells was diluted 1:20, whereas the supernatants of the RIN-T2B-5AH were diluted 1:10. The insulin release was measured with rat/mouse insulin ELISA (Merck Millipore Darmstadt, Cat. # EZRMI-13K) by following the manufacture's protocol. The enzyme activity of the horseradish peroxidase of the immobilized biotinylated antibodies was monitored spectrophotometrically by the increased absorbency at 490 nm, and corrected by the absorbency at 610 nm.
Afterwards, the supernatant was analyzed for insulin using the rat/mouse insulin ELISA (Merck Millipore Darmstadt, Cat. # EZRMI-13K) by following the manufacture's protocol..
Cells were treated for 2 h in a high glucose (4.5 g/L) DMEM media at 37°C and 5 % (v/v) CO2. Insulin release was analyzed using the rat/mouse insulin ELISA.

beta-TC6 cell system = experiment: Comparison of insulin release with commercially available inhibitors, mouse/rat insulin ELISA; type: cell-based; settings: 2 h; for effect on insulin release: concentration not given
Method: Based on literature references, several commercially available inhibitors were compared with compounds according to the invention. […] Cells were cultured for 24 h before treated with the inventive compounds and control inhibitors for 2 h at 37 °C and 5 % (v/v) CO2. Insulin in the supernatant was detected by mouse/rat insulin ELISA.

beta-TC6 = experiment: MTT cytotoxicity assay (cell viability and proliferation); type: cell-based, mouse; settings: beta-TC6, 72 h treatment, concentrations up to 10 µM
Method: Using a MTT approach, we determined the effect on cell viability and proliferation of beta-TC6 and C2C12 cells to display potential cytotoxicity of the compounds according to the invention in vitro after a 72 h treatment.
For MTT (3-(4,5-dimethylthiazol-2-yl)-2,5-diphenyl tetrazolium bromide) transformation, 1/5 of total volume of a 5 mg/mL MTT stock solution was added to the cells as well as control wells and incubated at 37 °C, 5 % CO2 (v/v) for 1 h. Then 1/2 of total volume of MTT-stop solution was added and plates were incubated overnight in the dark at 25 °C. The optical density (OD) was measured using a multiwell spectrophotometer at a wavelength of 570 nm.

beta-TC6 cells [2] = experiment: Insulin release in low glucose medium, rat/mouse insulin ELISA; type: cell-based; settings: low glucose 1.125 mM (20 mg/dL), 2 h, relative to DMSO control; Example 6, Figure 5
Method: as §1, with “In order to measure the insulin released upon compound treatment beta-TC6 insulinoma (mouse) and RIN-T2B-5AH (rat islet tumor subclone) cells were washed and incubated for 2 h in high (4.5 g/L) or low (1.125 g/L) glucose media at 37 °C. After” for “After”
Hypoglycemia can cause impairment of cognitive function, motoric control or even consciousness. […] Therefore, we verified the glucose dependent insulin release in beta-TC6 cells using media with 1.125 mM (20 mg/dL) glucose. Cells were cultured for 24 h in a 96-well plate, washed with PBS and then appropriate media was replaced for 2 h at 37°C and 5 % (v/v) CO2. […] The enzyme activity of the horseradish peroxidase of the immobilized biotinylated antibodies was monitored spectrophotometrically by the increased absorbency at 490 nm, and corrected by the absorbency at 610 nm. […]

beta-TC6 cells [3] = experiment: Insulin HTRF assay, relative activity Ar normalized to sunitinib; type: cell-based; settings: Mus musculus, normalized to positive control sunitinib (5 µM = 100%), Table 10
Procedure, shortened: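 Relative activity Ar was scaled between 0% and 100% controls, with sunitinib at 5 µM f.c. as reference. Insulin released by beta-TC6 cells was quantified by sandwich HTRF (Eu-cryptate/XL665 antibodies, 120 min RT). Cells had been seeded 24 or 48 h, then treated 2–4 h at 37°C in induction buffer, 0.5% DMSO.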

C2C12 cells = experiment: 2-NBDG glucose uptake by flow cytometry; settings: C2C12, 1 h compound treatment; Figure 10
Method: Furthermore, as internal controls, samples of glucose free media, respectively glucose free media with test compound, were tested. Subsequently, cells were washed, trypsinized and harvested in ice-cold PBS before centrifuged at 1.6 x10^3 rpm at 4°C. Cells were analyzed by flow cytometry (FACS Calibur, BD Bioscience, respectively a BD Accuri® C6 Flow Cytometer).
To investigate the impact of the Grk5 inhibitors on Glucose uptake, cells were cultured 1 h in glucose free media supplied with 100 µM 2-NBDG at 37 °C and 5 % (v/v) CO2. Furthermore, as internal controls, samples of glucose free media, respectively glucose free media with test compounds, were measured. Fluorescence was analyzed by flow cytometer (FACS Calibur, BD Bioscience, respectively a BD Accuri® C6 Flow Cytometer).

[4] = Mus musculus, Beta-TC6, 5µM, DMSO = 0, Table 9

Structure (SMILES) | Emax (beta-TC6 cells [3]) [%] | further results
CC(=O)Nc1cc(-c2cccc(C(=O)NCCO)c2)cn2c(-c3ccc(F)cc3)cnc12 [Cpd c1, reference compound] | – | activation at 5 µM (beta-TC6 cells [1]): 1.3 ± 0.3%
COc1ccc(Cl)cc1C(=O)NCCc1ccc(S(=O)(=O)NC(=O)NC2CCCCC2)cc1 [Glibenclamide, reference compound] | – | effect on insulin release (beta-TC6 cell system): no effect
O=C1C(Cl)=C(N2C(=O)CCC2=O)C(=O)c2ccccc21 [MEK, reference compound] | – | activation at 10 µM (beta-TC6 cell system; Mus musculus, Beta-TC6, 10µM, DMSO = 0, Table 9): 67.3%
CCN(CC)CCNC(=O)c1c(C)[nH]c(/C=C2\C(=O)Nc3ccc(F)cc32)c1C [Sunitinib, reference compound] | – | toxic effect (beta-TC6): toxic in lower concentrations; insulin release (beta-TC6 cells [2]): 0.77 ± 0.03; Insulin Release [%] (beta-TC6 cell system; 5µM, DMSO = 0, Table 9, listed as Sutent): 93.35%; activation at 5 µM (beta-TC6 cell system; [4]): 93.3 ± 14.4%
CCCCNC(=O)NS(=O)(=O)c1ccc(C)cc1 [Tolbutamide, reference compound] | – | effect on insulin release (beta-TC6 cell system): no effect
NC(=O)c1ccc(-c2cnc3ccc(Cc4ccccc4)nn23)cc1 [compound 2, 4-(6-benzylimidazo[1,2-b]pyridazin-3-yl)benzamide] | 20 to 50 | activation at 5 µM (beta-TC6 cell system; [4]): 65.7%; uptake of 2-NBDG compared with negative control background (C2C12 cells): significantly increased uptake of 2-NBDG
COc1cc(OC)cc(-c2cn3c(-c4cccs4)cnc3cn2)c1 [compound 426, 6-(3,5-dimethoxyphenyl)-3-(2-thienyl)imidazo[1,2-a]pyrazine] | 20 to 50 | –
Nc1ccc(-c2cn3c(-c4cccs4)cnc3cn2)cn1 [compound 427, 5-[3-(2-thienyl)imidazo[1,2-a]pyrazin-6-yl]pyridin-2-amine] | 20 to 50 | –
CC(C)Oc1cccc(-c2cn3c(-c4cccs4)cnc3cn2)c1 [compound 428, 6-(3-isopropoxyphenyl)-3-(2-thienyl)imidazo[1,2-a]pyrazine] | 20 to 50 | –
CN1CCN(c2ccc(-c3cn4c(-c5ccc(C(=O)N(C)C)cc5)cnc4cn3)cn2)CC1 [compound 429, N,N-dimethyl-4-[6-[6-(4-methylpiperazin-1-yl)-3-pyridyl]imidazo[1,2-a]pyrazin-3-yl]benzamide] | 20 to 50 | –
CN(C)C(=O)c1ccc(-c2cnc3cnc(-c4ccccc4Oc4ccccc4)cn23)cc1 [compound 430, N,N-dimethyl-4-[6-(2-phenoxyphenyl)imidazo[1,2-a]pyrazin-3-yl]benzamide] | 20 to 50 | –
CN(C)C(=O)c1ccc(-c2cnc3cnc(-c4ccsc4)cn23)cc1 [compound 431, N,N-dimethyl-4-[6-(3-thienyl)imidazo[1,2-a]pyrazin-3-yl]benzamide] | 20 to 50 | –
CC(=O)Nc1cccc(-c2cn3c(-c4ccc(C(=O)N(C)C)cc4)cnc3cn2)c1 [compound 432, 4-[6-(3-acetamidophenyl)imidazo[1,2-a]pyrazin-3-yl]-N,N-dimethyl-benzamide] | 20 to 50 | –
CN(C)C(=O)c1ccc(-c2cnc3cnc(-c4ccc5c(ccn5C)c4)cn23)cc1 [compound 433, N,N-dimethyl-4-[6-(1-methylindol-5-yl)imidazo[1,2-a]pyrazin-3-yl]benzamide] | 20 to 50 | –
CC(=O)c1ccc(-c2cn3c(-c4ccc(C(=O)NC5CC5)cc4)cnc3cn2)s1 [compound 434, 4-[6-(5-acetyl-2-thienyl)imidazo[1,2-a]pyrazin-3-yl]-N-cyclopropyl-benzamide] | 20 to 50 | –
CC(C)N1CCN(c2ccc(-c3cn4c(-c5ccc(C(=O)NC6CC6)cc5)cnc4cn3)cc2)CC1 [compound 435, N-cyclopropyl-4-[6-[4-(4-isopropylpiperazin-1-yl)phenyl]imidazo[1,2-a]pyrazin-3-yl]benzamide] | 20 to 50 | –
COc1cc(OC)cc(-c2cnc3cnc(-c4ccccc4N(C)C)cn23)c1 [compound 436, 2-[3-(3,5-dimethoxyphenyl)imidazo[1,2-a]pyrazin-6-yl]-N,N-dimethylaniline] | 20 to 50 | –
COc1cc(OC)cc(-c2cnc3cnc(-c4cccc(OC(C)C)c4)cn23)c1 [compound 437, 3-(3,5-dimethoxyphenyl)-6-(3-isopropoxyphenyl)imidazo[1,2-a]pyrazine] | 20 to 50 | –
Cn1cc(-c2cnc3cnc(-c4ccncc4)cn23)cn1 [compound 438, 3-(1-methylpyrazol-4-yl)-6-(4-pyridyl)imidazo[1,2-a]pyrazine] | 20 to 50 | –
Cn1cc(-c2cnc3cnc(-c4cc5ccccc5s4)cn23)cn1 [compound 439, 6-(benzothiophen-2-yl)-3-(1-methylpyrazol-4-yl)imidazo[1,2-a]pyrazine] | 20 to 50 | –
COc1cc(-c2cn3c(-c4ccc5ncccc5c4)cnc3cn2)cc(OC)c1OC [compound 440, 6-[6-(3,4,5-trimethoxyphenyl)imidazo[1,2-a]pyrazin-3-yl]quinoline] | 20 to 50 | –
COc1cc(-c2cn3c(-c4ccc5ncccc5c4)cnc3cn2)ccc1O [compound 441, 2-methoxy-4-[3-(6-quinolyl)imidazo[1,2-a]pyrazin-6-yl]phenol] | 20 to 50 | –
Cc1cc(-c2cn3c(-c4ccc5ncccc5c4)cnc3cn2)cc(C)c1O [compound 442, 2,6-dimethyl-4-[3-(6-quinolyl)imidazo[1,2-a]pyrazin-6-yl]phenol] | 20 to 50 | –
Cn1ccc2cc(-c3cn4c(-c5ccc6ncccc6c5)cnc4cn3)ccc21 [compound 443, 6-[6-(1-methylindol-5-yl)imidazo[1,2-a]pyrazin-3-yl]quinoline] | ≥ 100 | –
CS(=O)(=O)Nc1cccc(-c2cn3c(-c4ccc5ncccc5c4)cnc3cn2)c1 [compound 444, N-[3-[3-(6-quinolyl)imidazo[1,2-a]pyrazin-6-yl]phenyl]methanesulfonamide] | 20 to 50 | –

Reference: patent publication EP2818471A1, “Nitrogen bicyclic compounds as inhibitors for Scyl1 and Grk5” (Max-Planck-Gesellschaft zur Förderung der Wissenschaften …, priority 2013, dated 2014)
